Target: Glutamine synthetase (Homo sapiens, UniProt P15104)
Assay: Enzyme Assay
Conditions: pH 7
Protocol: The enzyme was assayed at pH 7.0 using the pyruvate kinase/lactate dehydroenase coupling system.

Sequence of Glutamine synthetase (P15104 whole entry): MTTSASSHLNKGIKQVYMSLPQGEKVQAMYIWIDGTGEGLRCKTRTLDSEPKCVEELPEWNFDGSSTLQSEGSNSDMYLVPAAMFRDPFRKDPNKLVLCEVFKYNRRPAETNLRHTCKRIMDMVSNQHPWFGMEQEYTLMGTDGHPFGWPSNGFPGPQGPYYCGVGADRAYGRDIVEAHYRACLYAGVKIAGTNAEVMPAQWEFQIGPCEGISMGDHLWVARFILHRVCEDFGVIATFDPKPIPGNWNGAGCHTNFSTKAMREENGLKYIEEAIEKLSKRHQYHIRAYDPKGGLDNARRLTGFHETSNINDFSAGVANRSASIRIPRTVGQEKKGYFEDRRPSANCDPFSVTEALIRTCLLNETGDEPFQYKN

CP(=O)(O)CCC(N)C(=O)O (stereo not drawn) [Phosphinothricin analog, 1 (L Isomer)]
Ki: 0.22 nM

CC(CC(N)C(=O)O)P(C)(=O)O (configuration not stated) [Phosphinothricin analog, 2 (D,L mixture)]
Ki: 140 nM

Reference: BindingDB's records for doi:10.7270/Q24J0CNF (Chevron Chemical, 1990)
